Measured values: patent publication US20040063764A1, “Halogen compounds having thrombopoietin receptor agonism” (priority 2001, published 2004)

Molecular target: T1, human TPO receptor (Homo sapiens, UniProt P40238)
T1 construct: expressed in transfected cells; host or cells: BaF-B03 (murine IL-3 dependent pro-B cell line); the resulting line is BaF/hTPOR
T1 sequence (P40238 26-635): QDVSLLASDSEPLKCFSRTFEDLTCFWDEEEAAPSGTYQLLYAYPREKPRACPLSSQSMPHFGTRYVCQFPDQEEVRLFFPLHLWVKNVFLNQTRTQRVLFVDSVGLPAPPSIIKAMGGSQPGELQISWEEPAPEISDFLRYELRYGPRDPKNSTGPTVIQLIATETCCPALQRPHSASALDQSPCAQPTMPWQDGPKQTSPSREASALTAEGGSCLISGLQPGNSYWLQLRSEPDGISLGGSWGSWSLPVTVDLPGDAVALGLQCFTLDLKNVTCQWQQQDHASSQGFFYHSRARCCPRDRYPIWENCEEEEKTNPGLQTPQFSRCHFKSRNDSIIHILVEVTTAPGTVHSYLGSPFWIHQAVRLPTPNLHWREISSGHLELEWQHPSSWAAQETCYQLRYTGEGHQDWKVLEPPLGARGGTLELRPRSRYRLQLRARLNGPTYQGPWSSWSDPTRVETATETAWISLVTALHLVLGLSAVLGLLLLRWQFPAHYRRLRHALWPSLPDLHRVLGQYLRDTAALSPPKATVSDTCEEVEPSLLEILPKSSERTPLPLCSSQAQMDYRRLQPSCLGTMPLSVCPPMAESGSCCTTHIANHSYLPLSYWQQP
Assay: Thrombopoietic activity: proliferation of TPO dependent BaF/hTPOR cell line (WST-1)
Format: cell-based
Details: BaF/hTPOR cells, 20 hours incubation then WST-1 for 4 hours, absorbance at 450 nm; ED50 = half concentration of the concentration showing the maximum thrombopoietic activity
Description: The TPO dependent BaF/hTPOR cell line which was established by introducing human TPO receptor into BaF-B03 cells according to Collins et al (J. Cell. Physiol., 137:293-298 (1988)) was used to test the thrombopoietic activity of the present compound. The DNA sequences and encoded peptide sequences for human TPO receptor have been described by Vigon et al (Proc. Natl. Acad. Sci. USA, 89:5640-5644 (1992)). TPO dose not have any ability to support proliferation of interlukin-3 dependent parental cell line BaF-B03. BAF/hTPOR cells were maintained in RPMI medium and 10% WEHI-3 conditioned medium. These cells were washed once with PBS and resuspended in RPMI medium without WHEHI-3 conditioned medium and seeded into each well of 96-well microtiter plates at a density of 5×10^4 cells per well in the presence of the present compound or TPO. After incubation at 37° C. for 20 hours in the 5% CO2 incubator, WST-1 reagent (Takara Biomedicals, Japan) was added to each wells and the cells were further incubated for 4 hours. The absorbance at 450 nm was measured. Table 7 exemplifies the ED50 for tested compounds of the present invention, wherein the ED50 is the half concentration of the concentration showing the maximum thrombopoietic activity.

Compound	EC50 [nM]
O=C1NC(=S)S/C1=C\c1ccc(C(=O)Nc2nc(-c3cccc(C(F)(F)F)c3F)cs2)cc1 [Compound A-1]	8
O=C1NC(=O)/C(=C/c2ccc(C(=O)Nc3nc(-c4ccc(C(F)(F)F)cc4F)cs3)cc2)S1 [Compound A-4]	26
O=C1NC(=O)/C(=C/c2ccc(C(=O)Nc3nc(-c4cc(F)c(F)c(F)c4F)cs3)cc2)S1 [Compound A-10]	76
CCCCc1cccc(-c2csc(NC(=O)c3ccc(/C=C4\SC(=O)NC4=O)cc3)n2)c1F [Compound A-28]	10
CCCc1c(Br)ccc(-c2csc(NC(=O)c3ccc(/C=C4\SC(=O)NC4=O)cc3)n2)c1F [Compound A-29]	16
CC(C)(C)CCc1cccc(-c2csc(NC(=O)c3ccc(/C=C4\SC(=O)NC4=O)cc3)n2)c1F [Compound A-32]	9
CCOCCc1cccc(-c2csc(NC(=O)c3ccc(/C=C4\SC(=O)NC4=O)cc3)n2)c1F [Compound A-35]	23
O=C1NC(=O)/C(=C/c2ccc(C(=O)Nc3nc(-c4cccc(C5CCCCC5)c4F)cs3)cc2)S1 [Compound A-37]	17
O=C1NC(=O)/C(=C/c2ccc(C(=O)Nc3nc(-c4cccc(C5CCCC5)c4F)cs3)cc2)S1 [Compound A-38]	28
COCCc1cccc(-c2csc(NC(=O)c3ccc(/C=C4\SC(=O)NC4=O)cc3)n2)c1F [Compound A-42]	37
COCCOCCc1cccc(-c2csc(NC(=O)c3ccc(/C=C4\SC(=O)NC4=O)cc3)n2)c1F [Compound A-43]	69
CCOC(=O)CCCCc1cccc(-c2csc(NC(=O)c3ccc(/C=C4\SC(=O)NC4=O)cc3)n2)c1F [Compound A-44]	84
CCOC(=O)CCCCCc1cccc(-c2csc(NC(=O)c3ccc(/C=C4\SC(=O)NC4=O)cc3)n2)c1F [Compound A-45]	74
O=C1NC(=O)/C(=C/c2ccc(C(=O)Nc3nc(-c4cccc(OC(F)(F)F)c4F)cs3)cc2)S1 [Compound A-46]	13
COC(c1cccc(-c2csc(NC(=O)c3ccc(/C=C4\SC(=O)NC4=O)cc3)n2)c1F)C(C)C (stereo not shown) [Compound A-50]	28
COC(c1cccc(-c2csc(NC(=O)c3ccc(/C=C4\SC(=O)NC4=O)cc3)n2)c1F)C1CCCCC1 (stereo not shown) [Compound A-51]	13

Second part, the compound after the results:

EC50 [nM]	Compound
86	O=C1NC(=O)/C(=C/c2ccc(C(=O)Nc3nc(-c4cc(F)ccc4F)cs3)cc2)S1 [Compound A-2]
75	COc1ccc(-c2csc(NC(=O)c3ccc(/C=C4\SC(=O)NC4=O)cc3)n2)c(F)c1 [Compound A-3]
25	O=C1NC(=O)/C(=C/c2ccc(C(=O)Nc3nc(-c4cccc(F)c4F)cs3)cc2)S1 [Compound A-5]
38	O=C1NC(=O)/C(=C/c2ccc(C(=O)Nc3nc(-c4ccc(Br)cc4F)cs3)cc2)S1 [Compound A-6]
70	Cc1ccc(-c2csc(NC(=O)c3ccc(/C=C4\SC(=O)NC4=O)cc3)n2)c(F)c1 [Compound A-7]
345	O=C1NC(=O)/C(=C/c2ccc(C(=O)Nc3nc(-c4ccc(-c5ccccc5)cc4F)cs3)cc2)S1 [Compound A-8]
25	O=C1NC(=O)/C(=C/c2ccc(C(=O)Nc3nc(-c4cccc(-c5ccccc5)c4F)cs3)cc2)S1 [Compound A-13]
109	O=C1NC(=O)/C(=C/c2ccc(C(=O)Nc3nc(-c4cccc(-c5cccnc5)c4F)cs3)cc2)S1 [Compound A-30]
58	CCOc1cccc(-c2csc(NC(=O)c3ccc(/C=C4\SC(=O)NC4=O)cc3)n2)c1F [Compound A-31]
12	O=C1NC(=O)/C(=C/c2ccc(C(=O)Nc3nc(-c4cccc(CCc5ccccc5)c4F)cs3)cc2)S1 [Compound A-33]
23	O=C1NC(=O)/C(=C/c2ccc(C(=O)Nc3nc(-c4cccc(Cc5ccccc5)c4F)cs3)cc2)S1 [Compound A-34]

Same assay, conditions: Table 7; BaF/hTPOR cells, 20 hours incubation then WST-1 for 4 hours, absorbance at 450 nm; ED50 = half concentration of the concentration showing the maximum thrombopoietic activity

Compound	EC50 [nM]
CCCCCc1cccc(-c2csc(NC(=O)c3ccc(C=C4SC(=O)NC4=O)cc3)n2)c1F [Compound A-17]	13
O=C1NC(=O)C(=Cc2ccc(C(=O)Nc3nc(-c4ccc(C(F)(F)F)c(Br)c4F)cs3)cc2)S1 [Compound A-21]	355
CCCCCCc1cccc(-c2csc(NC(=O)c3ccc(C=C4SC(=O)NC4=O)cc3)n2)c1F [Compound A-22]	7
CCCCOc1cccc(-c2csc(NC(=O)c3ccc(C=C4SC(=O)NC4=O)cc3)n2)c1F [Compound A-24]	49
CC(C)CCCCc1cccc(-c2csc(NC(=O)c3ccc(C=C4SC(=O)NC4=O)cc3)n2)c1F [Compound A-26]	7

More lines, now with the values ahead:

EC50 [nM]	Compound
26	O=C1NC(=O)C(=Cc2ccc(C(=O)Nc3nc(-c4cccc(Br)c4F)cs3)cc2)S1 [Compound A-14]
73	COc1cccc(-c2csc(NC(=O)c3ccc(C=C4SC(=O)NC4=O)cc3)n2)c1F [Compound A-15]
25	Cc1cccc(-c2csc(NC(=O)c3ccc(C=C4SC(=O)NC4=O)cc3)n2)c1F [Compound A-16]
83	O=C1NC(=O)C(=Cc2ccc(C(=O)Nc3nc(-c4ccc(F)c(Br)c4F)cs3)cc2)S1 [Compound A-18]
69	O=C1NC(=O)C(=Cc2ccc(C(=O)Nc3nc(-c4ccc(F)c(-c5ccccc5)c4F)cs3)cc2)S1 [Compound A-19]
28	O=C1NC(=O)C(=Cc2ccc(C(=O)Nc3nc(-c4cccc(-c5ccc(F)cc5)c4F)cs3)cc2)S1 [Compound A-20]
75	CCCCCc1c(F)ccc(-c2csc(NC(=O)c3ccc(C=C4SC(=O)NC4=O)cc3)n2)c1F [Compound A-23]
18	CCc1cccc(-c2csc(NC(=O)c3ccc(C=C4SC(=O)NC4=O)cc3)n2)c1F [Compound A-25]
